Reference: ChEMBL document CHEMBL2406941, “Discovery of 'molecular switches' within a GIRK activator scaffold that afford selective GIRK inhibitors” (Bioorg Med Chem Lett, 2013)
Calls of active or inactive are those of the source. The rule behind the calls is not given here.

What was measured:
[1] = biological target: T1, G protein-activated inward rectifier potassium channel 2 (Homo sapiens) (UniProt P48051); test: Activation of GIRK2 (unknown origin)
T1 sequence (whole entry): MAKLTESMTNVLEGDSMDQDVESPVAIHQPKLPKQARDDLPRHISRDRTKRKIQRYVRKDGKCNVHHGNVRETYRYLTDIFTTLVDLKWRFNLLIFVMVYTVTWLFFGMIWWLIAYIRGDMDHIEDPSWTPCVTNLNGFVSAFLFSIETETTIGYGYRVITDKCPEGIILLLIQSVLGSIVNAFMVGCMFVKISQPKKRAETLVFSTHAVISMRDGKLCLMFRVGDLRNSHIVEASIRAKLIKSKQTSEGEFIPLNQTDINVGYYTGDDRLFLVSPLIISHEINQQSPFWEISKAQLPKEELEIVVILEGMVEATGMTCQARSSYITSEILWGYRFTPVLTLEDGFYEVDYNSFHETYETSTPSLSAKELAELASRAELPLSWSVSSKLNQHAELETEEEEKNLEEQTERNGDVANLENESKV

[2] = biological target: Kir3.2/Kir3.3 (Homo sapiens) (UniProt P48051+Q92806); test: Activation of GIRK2/3 (unknown origin); type: protein-complex assay
[3] = biological target: T2, Kir3.1/Kir3.2 (Homo sapiens, UniProt P48051+P48549); test: Activation of GIRK1/2 (unknown origin); type: protein-complex assay
T2 sequence (P48549 whole entry): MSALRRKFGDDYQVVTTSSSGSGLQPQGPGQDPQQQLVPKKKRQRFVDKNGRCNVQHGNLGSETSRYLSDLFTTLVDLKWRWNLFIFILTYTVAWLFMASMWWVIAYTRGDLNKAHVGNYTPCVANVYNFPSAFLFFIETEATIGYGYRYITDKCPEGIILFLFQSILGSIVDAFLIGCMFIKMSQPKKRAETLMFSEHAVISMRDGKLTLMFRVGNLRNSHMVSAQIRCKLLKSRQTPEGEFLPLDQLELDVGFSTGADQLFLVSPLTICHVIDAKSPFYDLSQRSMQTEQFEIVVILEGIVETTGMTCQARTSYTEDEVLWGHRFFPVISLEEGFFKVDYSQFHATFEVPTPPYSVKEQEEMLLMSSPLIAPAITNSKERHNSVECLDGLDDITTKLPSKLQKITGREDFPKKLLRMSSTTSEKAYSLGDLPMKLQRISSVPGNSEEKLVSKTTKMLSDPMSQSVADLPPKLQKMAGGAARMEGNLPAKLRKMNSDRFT
T2 sequence (P48051 whole entry): T1 sequence (whole entry)

[4] = biological target: T3, Kir3.1/Kir3.4 (Homo sapiens) (UniProt P48549+P48544); test: Activation of GIRK1/4 (unknown origin) relative to ML297; type: protein-complex assay
[5] = biological target: T4, Kir3.1/Kir3.2 (Homo sapiens) (UniProt P48549+P48051); test: Activation of GIRK1/2 (unknown origin) relative to ML297; type: protein-complex assay
[6] = biological target: T5, Kir3.1/Kir3.4 (Homo sapiens, UniProt P48544+P48549); test: Activation of GIRK1/4 (unknown origin); type: protein-complex assay
T5 sequence (P48549 whole entry): T2 sequence (P48549 whole entry)
T5 sequence (P48544 whole entry): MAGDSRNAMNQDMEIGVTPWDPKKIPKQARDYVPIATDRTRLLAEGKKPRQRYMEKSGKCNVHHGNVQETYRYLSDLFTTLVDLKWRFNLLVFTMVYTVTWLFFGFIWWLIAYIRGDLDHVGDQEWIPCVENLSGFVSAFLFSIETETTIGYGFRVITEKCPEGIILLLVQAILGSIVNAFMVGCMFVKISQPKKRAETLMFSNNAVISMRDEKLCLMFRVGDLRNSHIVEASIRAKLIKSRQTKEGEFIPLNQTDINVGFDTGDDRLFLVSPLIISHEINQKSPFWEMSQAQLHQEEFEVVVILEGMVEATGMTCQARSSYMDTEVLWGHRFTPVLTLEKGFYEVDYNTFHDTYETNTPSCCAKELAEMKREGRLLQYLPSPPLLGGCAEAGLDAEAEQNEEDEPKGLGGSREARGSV

[7] = Activation of GIRK (unknown origin); design: species or system Homo sapiens
[8] = biological target: T3, Kir3.1/Kir3.4 (Homo sapiens); test: Activation of GIRK1/4 (unknown origin) relative to control; type: protein-complex assay
[9] = biological target: T4, Kir3.1/Kir3.2 (Homo sapiens); test: Activation of GIRK1/2 (unknown origin) by thallium flux assay relative to control; type: protein-complex assay
[10] = biological target: T2, Kir3.1/Kir3.2; test: Activation of GIRK1/2 (unknown origin) by thallium flux assay; type: protein-complex assay
[11] = Inhibition of GIRK (unknown origin); design: species or system Homo sapiens

## Cc1cc(NC(=O)Nc2ccc(F)c(F)c2)n(Cc2ccccc2)n1
[1]
  Activity: inactive
[2]
  Activity: inactive
[3]
  EC50: 70 nM
[4]
  Efficacy: 99%
[5]
  Efficacy: 87%
[6]
  EC50: 110 nM

## O=C(Nc1cccc(F)c1)Nc1cc(C2CC2)nn1Cc1ccccc1
[3]
  EC50: 530 nM
[4]
  Efficacy: 85%
[5]
  Efficacy: 46%
[6]
  EC50: 780 nM

## O=C(Nc1ccc(F)c(Cl)c1)Nc1cc(C2CC2)nn1Cc1ccccc1
[3]
  EC50: 210 nM
[4]
  Efficacy: 83%
[5]
  Efficacy: 47%
[6]
  EC50: 320 nM

## CC(C)c1cc(NC(=O)Nc2cccc(Cl)c2)n(Cc2ccccc2)n1
[3]
  EC50: 470 nM
[4]
  Efficacy: 23%
[5]
  Efficacy: 35%
[6]
  EC50: 1700 nM

## Cc1cc(NC(=O)Nc2ccc(F)c(F)c2)n(-c2ccccn2)n1
[1]
  Activity: inactive
[2]
  Activity: inactive
[3]
  EC50: > 10000 nM
[5]
  Efficacy: 78%
[6]
  EC50: > 30000 nM

## O=C(Nc1cccc(Cl)c1)Nc1cc(C2CC2)nn1-c1ccccc1
[3]
  EC50: 1400 nM
[4]
  Efficacy: 39%
[5]
  Efficacy: 37%
[6]
  EC50: 720 nM

## Cc1cc(NC(=O)Nc2ccc(F)c(F)c2)n(-c2ccncc2)n1
[1]
  Activity: inactive
[2]
  Activity: inactive
[3]
  EC50: > 10000 nM
[5]
  Efficacy: 88%
[6]
  EC50: > 30000 nM

## C[C@@H]1O[C@@H](O[C@H]2[C@H](Oc3cc(O)c4c(c3)O[C@H](c3ccc(O)cc3)CC4=O)O[C@H](CO)[C@@H](O)[C@@H]2O)[C@H](O)[C@H](O)[C@H]1O [NARINGIN]
[7]
  EC50: > 100000 nM

## O=C(Nc1cccc(C(F)(F)F)c1)Nc1cc(C2CC2)nn1Cc1ccccc1
[3]
  EC50: 340 nM
[4]
  Efficacy: 39%
[5]
  Efficacy: 35%
[6]
  EC50: 650 nM

## Cc1ccc(NC(=O)Nc2cc(C3CC3)nn2Cc2ccccc2)cc1
[3]
  EC50: 570 nM
[4]
  Efficacy: 46%
[5]
  Efficacy: 35%
[6]
  EC50: 920 nM

## Cc1cc(NC(=O)Nc2ccccc2)n(-c2ccccc2)n1
[2]
  Activity: inactive
[8]
  Efficacy: 93%
[9]
  Efficacy: 97%
[6]
  EC50: 690 nM
[10]
  EC50: 1400 nM

## O=C(Nc1ccc(F)cc1)Nc1cc(C2CC2)nn1Cc1ccccc1
[3]
  EC50: 350 nM
[4]
  Efficacy: 90%
[5]
  Efficacy: 57%
[6]
  EC50: 570 nM

## O=C(Nc1cccc(Br)c1)Nc1cc(C2CC2)nn1Cc1ccccc1
[3]
  EC50: 380 nM
[4]
  Efficacy: 65%
[5]
  Efficacy: 44%
[6]
  EC50: 790 nM

## Cc1cc(NC(=O)Nc2ccc(F)c(F)c2)n(-c2ccccc2)n1
[2]
  Activity: inactive
[8]
  Efficacy: 93%
[9]
  Efficacy: 194%
[6]
  EC50: 1800 nM
[10]
  EC50: 160 nM

## CC(C)c1cc(NC(=O)Nc2cccc(C(F)(F)F)c2)n(Cc2ccccc2)n1
[3]
  EC50: 1700 nM
[4]
  Efficacy: 10%
[5]
  Efficacy: 38%
[6]
  EC50: 3500 nM

## CN1CCc2cc(Cl)c(O)cc2[C@@H](c2ccccc2)C1 [SCH-23390]
[11]
  IC50: 4000 nM

## O=C(Nc1ccc(F)c(F)c1)Nc1cc(C2CC2)nn1-c1ccccc1
[1]
  Activity: inactive
[2]
  Activity: inactive
[3]
  EC50: 410 nM
[5]
  Efficacy: 32%

## Cc1cc(NC(=O)Nc2ccc(F)c(F)c2)n(CC(F)(F)F)n1
[1]
  Activity: inactive
[2]
  Activity: inactive
[3]
  EC50: 460 nM
[4]
  Efficacy: 103%
[5]
  Efficacy: 96%
[6]
  EC50: 1300 nM

## Cc1cc(NC(=O)Nc2ccc(F)c(F)c2)n(-c2ccc(F)cc2)n1
[1]
  Activity: inactive
[2]
  Activity: inactive
[3]
  EC50: 190 nM
[4]
  Efficacy: 57%
[5]
  Efficacy: 78%
[6]
  EC50: 540 nM
